Legend:
Conditions in all cases: 72 h
[1] = test system: ML-2
Summary of the method: (§1)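 The IC50 was read from log-logistic dose–response fits. Fifteen myeloid leukaemia lines were exposed for 72 h at 37 °C with 5% CO2 to five tenfold doses from 1 to 10,000 nM in duplicate. ATP luminescence, normalised to vehicle and to a 10 µM positive control, was fitted with four parameters.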

[2] = test system: KCL-22
Summary of the method: as §1

[3] = test system: HEL
Summary of the method: as §1

[4] = test system: KG-1
Summary of the method: as §1

[5] = test system: MOLM-13
Summary of the method: as §1

[6] = test system: HL-60
Summary of the method: as §1

[7] = test system: LAMA-84
Summary of the method: as §1

[8] = test system: Mono-Mac-6
Summary of the method: as §1

[9] = test system: NOMO-1
Summary of the method: as §1

[10] = test system: KU-812
Summary of the method: as §1

[11] = test system: THP-1
Summary of the method: as §1

[12] = test system: K-562
Summary of the method: as §1

[13] = test system: SHI-1
Summary of the method: as §1

[14] = test system: MV4-11
Summary of the method: as §1

[15] = test system: BV-173
Summary of the method: as §1

[16] = test system: ML-2; assay: cell viability (% survival relative to DMSO control, bortezomib = 0%); higher = less cytotoxic
Summary of the method: (§2)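 After 72 h at 37 °C with 5% CO2, cell viability in 384-well plates was measured by CellTiter-Glo luminescence. The plates held compounds pre-printed at 1, 10, 100, 1000 or 10000 nM in duplicate, and cells from 10 AML and 5 CML lines seeded at densities titrated to linear growth. Percent survival is the duplicate mean, normalised to vehicle as 100% and a 10 µM positive control as 0%.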

[17] = test system: KCL-22; assay: as above
Summary of the method: as §2

[18] = test system: HEL; assay: as above
Summary of the method: as §2

[19] = test system: KG-1; assay: as above
Summary of the method: as §2

[20] = test system: MOLM-13; assay: as above
Summary of the method: as §2

[21] = test system: HL-60; assay: as above
Summary of the method: as §2

[22] = test system: LAMA-84; assay: as above
Summary of the method: as §2

[23] = test system: Mono-Mac-6; assay: as above
Summary of the method: as §2

[24] = test system: NOMO-1; assay: as above
Summary of the method: as §2

[25] = test system: KU-812; assay: as above
Summary of the method: as §2

[26] = test system: THP-1; assay: as above
Summary of the method: as §2

[27] = test system: K-562; assay: as above
Summary of the method: as §2

[28] = test system: SHI-1; assay: as above
Summary of the method: as §2

[29] = test system: MV4-11; assay: as above
Summary of the method: as §2

[30] = test system: BV-173; assay: as above
Summary of the method: as §2

Cl.NC1=CCCN1Cc1nc(O)nc(O)c1Cl [Tipiracil]
Conditions | IC50 (cell viability) [µM]
[1] | > 10
[2] | > 10
[3] | > 10
[4] | > 10
[5] | > 10
[6] | > 10
[7] | > 10
[8] | > 10
[9] | > 10
[10] | > 10
[11] | > 10
[12] | > 10
[13] | > 10
[14] | > 10
[15] | > 10

cell viability [%]
Conditions | 1 nM | 10 nM | 100 nM | 1000 nM | 10000 nM
[16] | 108 | 92.7 | 114 | 105 | 104
[17] | 115 | 90.2 | 105 | 114 | 90.8
[18] | 122 | 102 | 112 | 111 | 103
[19] | 98.2 | 95.1 | 111 | 107 | 111
[20] | 104 | 96.3 | 122 | 121 | 93.6
[21] | 98.8 | 97.2 | 127 | 130 | 119
[22] | 115 | 94.8 | 98.7 | 110 | 102
[23] | 122 | 96.2 | 107 | 100 | 96.5
[24] | 106 | 100 | 100 | 100 | 99.2
[25] | 101 | 88.8 | 104 | 108 | 99.7
[26] | 102 | 97.2 | 102 | 101 | 101
[27] | 106 | 99.8 | 105 | 115 | 106
[28] | 107 | 106 | 125 | 113 | 116
[29] | 107 | 105 | 109 | 104 | 106
[30] | 108 | 95.1 | 97.9 | 99.5 | 106

Cl.OC[C@H]1NC[C@H](O)[C@@H](O)[C@H]1O [Migalastat]
Conditions | IC50 (cell viability) [µM]
[1] | > 10
[2] | > 10
[3] | > 10
[4] | > 10
[5] | > 10
[6] | > 10
[7] | > 10
[8] | > 10
[9] | > 10
[10] | > 10
[11] | > 10
[12] | > 10
[13] | > 10
[14] | > 10
[15] | > 10

cell viability [%]
Conditions | 1 nM | 10 nM | 100 nM | 1000 nM | 10000 nM
[16] | 98.5 | 97.1 | 111 | 103 | 100
[17] | 95.6 | 90.2 | 101 | 102 | 100
[18] | 99.2 | 99.3 | 101 | 104 | 101
[19] | 104 | 98.9 | 107 | 99.6 | 96.3
[20] | 83.6 | 89.2 | 104 | 116 | 101
[21] | 92.9 | 86.1 | 113 | 106 | 106
[22] | 106 | 96.8 | 103 | 99 | 92.7
[23] | 102 | 87.4 | 104 | 98.3 | 103
[24] | 101 | 103 | 104 | 100 | 94.8
[25] | 92.1 | 92.3 | 99.4 | 98.1 | 98.5
[26] | 102 | 99.1 | 104 | 98.7 | 90.9
[27] | 109 | 94.7 | 107 | 101 | 99.1
[28] | 113 | 96.2 | 109 | 102 | 107
[29] | 117 | 95.7 | 100 | 104 | 97.2
[30] | 97.1 | 102 | 113 | 105 | 87.6

From the supplement of paper PMC8671470
